In patent publication US20080221205A1, “FURAN DERIVATIVES FOR PREVENTING AND CURING OSTEOPOROSIS AND PHARMACEUTICAL COMPOSITIONS CONTAINING THE SAME” (priority 2002, published 2008):

Test system: osteoclast formation
Test: Inhibition rate of furan derivatives versus osteoclast formation (TRAP staining)
Type: cell-based, mice
Settings: TRAP-positive multinucleated cells, untreated control set as 100%
Method: First, bone marrow cells were isolated, as follow. After sacrificing 7-9 week female mice by cervical dislocation, femur and tibia were excised aseptically while removing attached soft tissues. After cutting both ends of long bones, 1 ml of an enzyme solution, containing 0.1% collagenase (Gibco), 0.05% trypsin and 0.5 mM EDTA (Gibco), was injected to the bone marrow cavity at one end using a syringe with a 26-guage needle, and bone marrow was then collected. After shaking the recovered bone marrow for 30 min, bone marrow cells were collected, and cultured in α-minimum essential medium (α-MEM) supplemented with 10% FBS for 24 hrs. Then, non-adherent cells were collected, which are osteoclast pregenitors, aliquotted onto culture plates at a density of 2×10^5 cells per well, and cultured for 8 days in α-MEM supplemented with 20 ng/ml of macrophage-colony stimulating factor (M-CSF, Peprotech, USA) and 30 ng/ml RANKL (Peprotech, USA). During the 8 days of culturing, the cells were treated with the Compound 1. Thereafter, osteoclast formation was investigated by fixing the cultured cells and then carrying out TRAP staining, as described in the following Experimental Example 2.2. In addition, resorption activity of osteoclasts was investigated by measuring the absorption area after removing osteoclasts in cultures in calcium phosphate-coated plates, as described in Experimental Example 2.3, below.
After cell culture, the adherent cells were washed with PBS, and TRAP staining was performed, as follows. After being fixed with citrate-acetate-formaldehyde for 5 min, the cells were incubated for 1 hr in acetate buffer (prewarmed at 37° C., pH 5.0) containing naphthol AS-BI phosphate, fast Garnet GBC and 7 mM tartrate buffer (pH 5.0). TRAP-positive multinucleated cells having 3 or more nuclei were considered as osteoclasts.
Osteoclast pregenitor cells were isolated, and their differentiation to mature osteoclasts was induced, according to the same method as in the Experimental Example 2-1, while treated with each of the furan derivatives of the present invention. According to the same method as in the Experimental Example 2-2, TRAP staining performed, and TRAP-positive multinucleated cells were counted. An inhibition rate of each furan derivative against osteoclast formation was expressed as percentage, wherein the number of stained cells in a control not treated the furan derivative was arbitrarily set as 100% (Tables 14 to 16).

Row | Structure (SMILES) | Inhibition rate against osteoclast formation, % (0.1 μM) [%] | Inhibition rate against osteoclast formation, % (1 μM) [%] | Inhibition rate against osteoclast formation, % (10 μM) [%]
1 | O=Cc1ccc(COC(=O)C(c2ccccc2)(c2ccccc2)c2ccccc2)o1 [Compound 40] | 0 | – | –
2 | CC(C)(C)c1ccc(OCc2ccc(C(=O)NC3CCCCC3)o2)cc1 [Compound 134] | 0 | 0 | –
3 | CC(C)OC(=O)c1ccc(COc2cc(Cl)ccc2Cl)o1 [Compound 95] | 0 | 0 | 0.97
4 | O=C(Nc1ccccc1[N+](=O)[O-])c1ccc(COc2ccccc2Cl)o1 [Compound 183] | 0 | 0 | –
5 | COC(=O)c1ccc(COc2ccc(Cl)cc2)o1 [Compound 80] | 0 | 0 | –
6 | CC(C)NC(=O)c1ccc(CNc2cc(Cl)ccc2Cl)o1 [Compound 130] | 0 | 0 | –
7 | COC(=O)c1ccccc1NC(=O)c1ccc(COc2ccc(C)c(C)c2)o1 [Compound 180] | 0 | 0 | –
8 | CCc1cccc(NC(=O)c2ccc(COc3ccc(F)cc3)o2)c1 [Compound 163] | 0 | 0 | –
9 | NC(=O)c1ccc(NC(=O)c2ccc(COc3cc(Cl)ccc3Cl)o2)cc1 [Compound 148] | 0 | – | –
10 | COc1ccc(F)c(CC(=O)OCc2ccc(C=O)o2)c1 [Compound 42] | 0 | – | –
11 | Cc1cc(OCc2ccc(C(=O)Nc3cccc(C)c3C)o2)ccc1Cl [Compound 172] | 0 | 0 | –
12 | COc1ccccc1OCc1ccc(C(=O)Oc2ccc(Cl)cc2)o1 [Compound 97] | 0 | 0 | –
13 | COC(=O)c1ccc(COc2ccccc2Cl)o1 [Compound 61] | 0 | 0 | –
14 | COc1ccccc1OCc1ccc(C(=O)Nc2ccccc2Cl)o1 [Compound 174] | 0 | 0 | –
15 | Cc1cc(OCc2ccc(C(=O)Nc3ccc(Cl)cc3)o2)ccc1Cl [Compound 173] | 0 | 0 | –
16 | CC(C)(C)c1ccc(OCc2ccc(C(=O)Nc3ccccc3)o2)cc1 [Compound 136] | 0 | 0 | –
17 | COC(=O)c1ccc(CNc2ccccc2)o1 [Compound 89] | 0 | 0 | –
18 | O=Cc1ccc(COC(=O)Cc2ccc3ccccc3c2)o1 [Compound 38] | 0 | – | 20
19 | O=C(O)c1ccc(COc2ccccc2Cl)o1 [Compound 107] | 0 | 0 | 32

Row | Structure (SMILES) | Inhibition rate against osteoclast formation, % (0.1 μM) [%] | Inhibition rate against osteoclast formation, % (1 μM) [%] | Inhibition rate against osteoclast formation, % (10 μM) [%]
20 | O=Cc1ccc(COC(=O)Nc2ccc(Cl)c(Cl)c2)o1 [Compound 54] | 0 | 0 | 10
21 | CCOc1ccccc1NC(=O)c1ccc(COc2ccc(Cl)cc2[N+](=O)[O-])o1 [Compound 144] | 0 | – | –
22 | O=Cc1ccc(COC(=O)Cc2ccccc2)o1 [Compound 32] | 0 | – | 50
23 | O=Cc1ccc(COC(=O)Cc2cccc(Cl)c2)o1 [Compound 35] | 0 | – | –
24 | O=C(Nc1cccc([N+](=O)[O-])c1)c1ccc(COc2ccc(I)cc2)o1 [Compound 191] | 0 | 0 | –
25 | Cc1cccc(C)c1NC(=O)c1ccc(COc2ccc(Cl)cc2)o1 [Compound 179] | 0 | 0 | –
26 | COc1ccccc1NC(=O)c1ccc(COc2ccccc2OC)o1 [Compound 166] | 0 | 0 | –
27 | O=C(O)c1ccc(COc2cccc(Cl)c2)o1 [Compound 112] | 0 | 0 | –
28 | COC(=O)c1ccc(COc2ccc(Cl)c(C)c2)o1 [Compound 75] | 0 | 0 | 0.78
29 | COc1ccc(C)cc1NC(=O)c1ccc(COc2cccc(Cl)c2)o1 [Compound 171] | 0 | 0 | 0.42
30 | CCCc1ccc(OCc2ccc(C(=O)Nc3ccc(F)cc3F)o2)c(OC)c1 [Compound 176] | 0 | 0 | –
31 | CCCc1ccc(OCc2ccc(C(=O)Nc3ccc(OC)c(OC)c3)o2)cc1 [Compound 164] | 0 | 0 | –
32 | CCc1ccc(OCc2ccc(C(=O)Nc3cc(C)cc(C)c3)o2)cc1 [Compound 169] | 0 | 0 | –
33 | CCN(CC)C(=O)c1ccc(COc2ccc(Cl)c(C)c2)o1 [Compound 123] | 0 | 6.9 | 100
34 | CC1CCN(C(=O)c2ccc(COc3cc(Cl)ccc3Cl)o2)CC1 [Compound 124] | 0 | 0 | –
35 | COC(=O)c1ccc(COc2cc(C)ccc2C(C)C)o1 [Compound 68] | 0 | 0 | 5.62
36 | O=C(Nc1cc(C(F)(F)F)ccc1Cl)c1ccc(COc2ccc(Cl)cc2)o1 [Compound 181] | 0 | 0 | –
37 | CC(C)(C)NC(=O)c1ccc(COc2ccccc2Br)o1 [Compound 129] | 0 | 0 | 2.2
